Laboratory results from the kinase profiling compilation of Christmann-Franck et al. (2016).

Columns and labels:
Assay in all cases: radiometric filter-binding kinase assay, Kinase HotSpot
Settings in all cases: compound 0.5 µM; ATP 10 µM
[1] = molecular target: ACVR1B (human) (UniProt P36896)
[2] = molecular target: AKT3 (human) (UniProt Q9Y243)
[3] = molecular target: AURKC (human) (UniProt Q9UQB9)
[4] = molecular target: AXL (human) (UniProt P30530)
[5] = molecular target: BTK (human) (UniProt Q06187)
[6] = molecular target: CAMK1D (human) (UniProt Q8IU85)
[7] = molecular target: CAMK2A (human) (UniProt Q9UQM7)
[8] = molecular target: CAMK2D (human) (UniProt Q13557)
[9] = molecular target: CDK3 CCNE1 (human) (UniProt Q00526+P24864)
[10] = molecular target: CDK7 CCNH MNAT1 (human) (UniProt P50613+P51948+P51946)
[11] = molecular target: CSNK1D (human) (UniProt P48730)
[12] = molecular target: DAPK1 (human) (UniProt P53355)
[13] = molecular target: DAPK2 (human) (UniProt Q9UIK4)
Chain of DAPK2 (human) (Q9UIK4 whole entry, looked up): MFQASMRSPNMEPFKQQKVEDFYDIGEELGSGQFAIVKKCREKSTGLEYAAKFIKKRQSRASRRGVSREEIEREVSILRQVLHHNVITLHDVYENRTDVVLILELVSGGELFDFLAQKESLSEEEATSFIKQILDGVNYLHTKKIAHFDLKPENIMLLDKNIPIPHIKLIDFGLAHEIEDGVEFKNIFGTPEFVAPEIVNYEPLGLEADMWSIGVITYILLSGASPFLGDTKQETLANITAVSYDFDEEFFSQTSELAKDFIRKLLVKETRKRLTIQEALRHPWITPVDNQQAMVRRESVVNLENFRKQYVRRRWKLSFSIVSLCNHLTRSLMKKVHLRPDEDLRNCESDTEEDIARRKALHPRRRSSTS

[14] = molecular target: DYRK3 (human) (UniProt O43781)
[15] = molecular target: EPHA4 (human) (UniProt P54764)
Chain of EPHA4 (human) (P54764 whole entry, looked up): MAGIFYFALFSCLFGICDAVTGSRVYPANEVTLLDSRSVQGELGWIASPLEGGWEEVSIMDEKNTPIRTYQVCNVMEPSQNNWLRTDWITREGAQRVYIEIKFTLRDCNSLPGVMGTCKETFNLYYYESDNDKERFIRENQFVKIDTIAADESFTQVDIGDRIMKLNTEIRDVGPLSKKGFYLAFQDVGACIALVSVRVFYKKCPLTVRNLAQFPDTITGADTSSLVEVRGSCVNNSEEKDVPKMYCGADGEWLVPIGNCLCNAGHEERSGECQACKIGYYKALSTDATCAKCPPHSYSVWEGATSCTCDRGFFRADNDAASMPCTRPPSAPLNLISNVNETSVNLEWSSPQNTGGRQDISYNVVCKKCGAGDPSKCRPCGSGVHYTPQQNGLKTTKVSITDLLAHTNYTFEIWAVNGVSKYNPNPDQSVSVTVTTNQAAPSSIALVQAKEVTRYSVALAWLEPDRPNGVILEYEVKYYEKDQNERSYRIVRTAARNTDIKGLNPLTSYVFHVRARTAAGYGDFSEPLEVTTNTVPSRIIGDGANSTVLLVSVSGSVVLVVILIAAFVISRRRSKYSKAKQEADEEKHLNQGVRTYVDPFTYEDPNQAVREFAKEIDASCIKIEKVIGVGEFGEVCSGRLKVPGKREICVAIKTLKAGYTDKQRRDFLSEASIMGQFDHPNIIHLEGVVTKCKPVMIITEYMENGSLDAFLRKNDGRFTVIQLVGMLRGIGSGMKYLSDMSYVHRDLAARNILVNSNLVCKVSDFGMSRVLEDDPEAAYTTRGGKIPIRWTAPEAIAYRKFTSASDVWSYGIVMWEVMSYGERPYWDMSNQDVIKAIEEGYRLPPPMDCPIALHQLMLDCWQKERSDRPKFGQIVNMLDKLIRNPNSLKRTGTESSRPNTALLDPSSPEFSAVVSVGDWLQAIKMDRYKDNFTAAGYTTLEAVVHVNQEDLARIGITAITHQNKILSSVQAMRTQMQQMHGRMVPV

[16] = molecular target: FES (human) (UniProt P07332)
[17] = molecular target: INSRR (human) (UniProt P14616)
[18] = molecular target: LIMK1 (human) (UniProt P53667)
Chain of LIMK1 (human) (P53667 whole entry, looked up): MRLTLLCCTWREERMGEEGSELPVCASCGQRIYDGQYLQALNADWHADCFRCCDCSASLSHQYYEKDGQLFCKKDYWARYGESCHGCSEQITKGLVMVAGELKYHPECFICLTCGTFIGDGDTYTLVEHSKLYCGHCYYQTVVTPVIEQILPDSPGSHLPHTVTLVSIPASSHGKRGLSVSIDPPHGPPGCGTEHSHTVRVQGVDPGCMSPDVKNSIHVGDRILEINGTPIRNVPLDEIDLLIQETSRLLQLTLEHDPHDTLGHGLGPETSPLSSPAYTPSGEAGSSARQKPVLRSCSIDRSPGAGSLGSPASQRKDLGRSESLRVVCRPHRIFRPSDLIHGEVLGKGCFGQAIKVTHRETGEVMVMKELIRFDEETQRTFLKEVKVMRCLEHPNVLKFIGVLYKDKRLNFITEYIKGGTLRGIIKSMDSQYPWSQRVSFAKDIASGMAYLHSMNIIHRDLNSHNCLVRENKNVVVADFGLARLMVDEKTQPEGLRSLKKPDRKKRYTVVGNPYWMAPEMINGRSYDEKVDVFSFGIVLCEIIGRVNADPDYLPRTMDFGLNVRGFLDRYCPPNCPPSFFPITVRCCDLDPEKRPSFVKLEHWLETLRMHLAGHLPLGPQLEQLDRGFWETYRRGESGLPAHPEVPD

[19] = molecular target: MAP3K2 (human) (UniProt Q9Y2U5)
[20] = molecular target: MAP3K5 (human) (UniProt Q99683)
[21] = molecular target: MAP3K7 TAB1 (human) (UniProt O43318+Q15750)
[22] = molecular target: MAP3K9 (human) (UniProt P80192)
[23] = molecular target: MAP4K4 (human) (UniProt O95819)
[24] = molecular target: MAPK12 (human) (UniProt P53778)
[25] = molecular target: NEK3 (human) (UniProt P51956)
[26] = molecular target: PASK (human) (UniProt Q96RG2)
[27] = molecular target: PDGFRB (human) (UniProt P09619)
[28] = molecular target: PHKG1 (human) (UniProt Q16816)
Chain of PHKG1 (human) (Q16816 whole entry, looked up): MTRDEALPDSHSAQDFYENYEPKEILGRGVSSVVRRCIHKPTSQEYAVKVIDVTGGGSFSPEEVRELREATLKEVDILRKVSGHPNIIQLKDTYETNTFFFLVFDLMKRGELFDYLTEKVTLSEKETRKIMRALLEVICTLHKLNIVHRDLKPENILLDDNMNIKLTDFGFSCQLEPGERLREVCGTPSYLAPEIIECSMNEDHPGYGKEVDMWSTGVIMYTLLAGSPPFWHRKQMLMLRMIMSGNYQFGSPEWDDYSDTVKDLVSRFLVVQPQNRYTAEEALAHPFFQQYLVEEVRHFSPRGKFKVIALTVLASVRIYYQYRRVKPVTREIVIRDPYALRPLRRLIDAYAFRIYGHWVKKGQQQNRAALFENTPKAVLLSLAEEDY

[29] = molecular target: PRKCD (human) (UniProt Q05655)
[30] = molecular target: PRKD2 (human) (UniProt Q9BZL6)
Chain of PRKD2 (human) (Q9BZL6 whole entry, looked up): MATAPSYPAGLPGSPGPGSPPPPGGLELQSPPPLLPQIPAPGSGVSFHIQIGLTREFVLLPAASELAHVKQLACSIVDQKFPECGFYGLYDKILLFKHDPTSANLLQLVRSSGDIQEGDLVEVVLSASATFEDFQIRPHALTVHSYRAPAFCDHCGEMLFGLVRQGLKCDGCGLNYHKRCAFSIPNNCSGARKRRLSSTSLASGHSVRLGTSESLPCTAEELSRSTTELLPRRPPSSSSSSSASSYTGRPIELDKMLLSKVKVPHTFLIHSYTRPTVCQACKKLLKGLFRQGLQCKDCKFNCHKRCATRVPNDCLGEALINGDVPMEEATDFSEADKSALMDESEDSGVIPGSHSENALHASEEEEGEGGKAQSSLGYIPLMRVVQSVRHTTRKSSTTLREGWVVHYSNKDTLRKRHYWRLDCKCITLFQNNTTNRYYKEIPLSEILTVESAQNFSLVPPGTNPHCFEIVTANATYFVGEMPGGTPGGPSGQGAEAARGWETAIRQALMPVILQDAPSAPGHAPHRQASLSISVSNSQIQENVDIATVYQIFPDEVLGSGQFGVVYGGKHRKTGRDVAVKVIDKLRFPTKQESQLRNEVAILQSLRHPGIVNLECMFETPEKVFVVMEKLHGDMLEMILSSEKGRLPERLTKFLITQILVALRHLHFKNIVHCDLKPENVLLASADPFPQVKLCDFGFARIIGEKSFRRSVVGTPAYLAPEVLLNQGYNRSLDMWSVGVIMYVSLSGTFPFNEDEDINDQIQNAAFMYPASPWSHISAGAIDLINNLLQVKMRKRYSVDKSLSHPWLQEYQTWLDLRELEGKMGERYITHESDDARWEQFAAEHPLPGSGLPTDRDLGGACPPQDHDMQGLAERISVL

[31] = molecular target: PRKG2 (human) (UniProt Q13237)
Chain of PRKG2 (human) (Q13237 whole entry, looked up): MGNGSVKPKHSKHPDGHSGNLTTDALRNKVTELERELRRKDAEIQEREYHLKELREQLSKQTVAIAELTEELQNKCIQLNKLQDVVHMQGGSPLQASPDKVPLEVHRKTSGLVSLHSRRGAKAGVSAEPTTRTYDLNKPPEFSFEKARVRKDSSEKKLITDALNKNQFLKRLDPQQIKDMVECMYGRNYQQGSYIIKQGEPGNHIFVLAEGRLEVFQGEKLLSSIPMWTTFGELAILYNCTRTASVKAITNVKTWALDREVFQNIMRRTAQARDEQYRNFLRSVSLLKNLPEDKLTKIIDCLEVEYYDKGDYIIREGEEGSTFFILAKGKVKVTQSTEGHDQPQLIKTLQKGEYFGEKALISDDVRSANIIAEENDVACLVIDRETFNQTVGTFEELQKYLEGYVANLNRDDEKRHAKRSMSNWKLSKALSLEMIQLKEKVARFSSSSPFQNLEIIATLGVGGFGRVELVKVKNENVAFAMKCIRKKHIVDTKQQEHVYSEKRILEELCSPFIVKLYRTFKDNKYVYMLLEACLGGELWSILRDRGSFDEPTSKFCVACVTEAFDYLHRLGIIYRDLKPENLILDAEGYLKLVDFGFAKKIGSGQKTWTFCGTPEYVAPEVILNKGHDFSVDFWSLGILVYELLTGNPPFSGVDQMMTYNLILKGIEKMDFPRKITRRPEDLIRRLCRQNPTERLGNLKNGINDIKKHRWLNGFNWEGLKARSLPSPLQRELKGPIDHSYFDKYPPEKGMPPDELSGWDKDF

[32] = molecular target: PTK2 (human) (UniProt Q05397)
[33] = molecular target: RIPK2 (human) (UniProt O43353)
[34] = molecular target: RPS6KA2 KD1 KD2 (human) (UniProt Q15349)
[35] = molecular target: RPS6KB1 (human) (UniProt P23443)
[36] = molecular target: SRPK2 (human) (UniProt P78362)
[37] = molecular target: STK16 (human) (UniProt O75716)
[38] = molecular target: STK24 (human) (UniProt Q9Y6E0)
[39] = molecular target: SYK (human) (UniProt P43405)
[40] = molecular target: TAOK1 (human) (UniProt Q7L7X3)
[41] = molecular target: TGFBR2 (human) (UniProt P37173)
[42] = molecular target: VRK1 (human) (UniProt Q99986)
Chain of VRK1 (human) (Q99986 whole entry, looked up): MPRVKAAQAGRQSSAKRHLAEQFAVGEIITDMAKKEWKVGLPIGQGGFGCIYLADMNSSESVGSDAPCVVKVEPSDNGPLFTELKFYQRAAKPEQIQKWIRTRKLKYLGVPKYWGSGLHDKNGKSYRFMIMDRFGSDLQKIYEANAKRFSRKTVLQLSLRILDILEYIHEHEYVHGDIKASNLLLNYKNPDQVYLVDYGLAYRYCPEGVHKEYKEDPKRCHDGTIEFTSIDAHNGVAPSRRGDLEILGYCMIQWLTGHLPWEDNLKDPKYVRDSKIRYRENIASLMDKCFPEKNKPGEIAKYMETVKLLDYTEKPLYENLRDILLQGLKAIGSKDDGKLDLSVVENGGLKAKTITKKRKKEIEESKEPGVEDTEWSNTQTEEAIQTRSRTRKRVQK

Chain of AURKC (human) (Q9UQB9 whole entry, looked up): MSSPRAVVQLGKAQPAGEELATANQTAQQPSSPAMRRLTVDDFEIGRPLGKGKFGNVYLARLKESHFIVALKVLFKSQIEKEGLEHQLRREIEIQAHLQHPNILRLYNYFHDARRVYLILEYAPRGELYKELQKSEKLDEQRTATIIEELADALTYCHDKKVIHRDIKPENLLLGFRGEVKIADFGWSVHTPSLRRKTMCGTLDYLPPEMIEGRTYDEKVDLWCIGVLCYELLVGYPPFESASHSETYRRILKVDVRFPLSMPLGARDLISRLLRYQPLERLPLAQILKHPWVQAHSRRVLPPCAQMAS

SMILES: Cn1sc(=O)n(Cc2ccccc2)c1=O
- residual activity [1]: 103%
- residual activity [2]: 96.6%
- residual activity [3]: 98.8%
- residual activity [4]: 96.9%
- residual activity [5]: 103%
- residual activity [6]: 97.1%
- residual activity [7]: 106%
- residual activity [8]: 98.9%
- residual activity [9]: 78.1%
- residual activity [10]: 96.8%
- residual activity [11]: 100%
- residual activity [12]: 97.9%
- residual activity [13]: 94%
- residual activity [14]: 108%
- residual activity [15]: 110%
- residual activity [16]: 101%
- residual activity [17]: 99.3%
- residual activity [18]: 101%
- residual activity [19]: 94.7%
- residual activity [20]: 91.5%
- residual activity [21]: 105%
- residual activity [22]: 99.4%
- residual activity [23]: 97%
- residual activity [24]: 102%
- residual activity [25]: 89.3%
- residual activity [26]: 101%
- residual activity [27]: 87.3%
- residual activity [28]: 102%
- residual activity [29]: 94.1%
- residual activity [30]: 95.1%
- residual activity [31]: 108%
- residual activity [32]: 99.5%
- residual activity [33]: 85.4%
- residual activity [34]: 104%
- residual activity [35]: 98%
- residual activity [36]: 98.1%
- residual activity [37]: 105%
- residual activity [38]: 105%
- residual activity [39]: 92.2%
- residual activity [40]: 88.9%
- residual activity [41]: 123%
- residual activity [42]: 94.2%

SMILES: O=C(CCCc1ccc(-c2ccccc2F)cc1)Nc1ccc(O)cc1
- residual activity [1]: 95.9%
- residual activity [2]: 111%
- residual activity [3]: 95.4%
- residual activity [4]: 91.4%
- residual activity [5]: 98.2%
- residual activity [6]: 122%
- residual activity [7]: 116%
- residual activity [8]: 108%
- residual activity [9]: 92.6%
- residual activity [10]: 101%
- residual activity [11]: 102%
- residual activity [12]: 110%
- residual activity [13]: 106%
- residual activity [14]: 94.5%
- residual activity [15]: 99.2%
- residual activity [16]: 100%
- residual activity [17]: 92.7%
- residual activity [18]: 106%
- residual activity [19]: 89.1%
- residual activity [20]: 94.3%
- residual activity [21]: 105%
- residual activity [22]: 100%
- residual activity [23]: 92.9%
- residual activity [24]: 104%
- residual activity [25]: 109%
- residual activity [26]: 101%
- residual activity [27]: 98.2%
- residual activity [28]: 89.1%
- residual activity [29]: 110%
- residual activity [30]: 97.6%
- residual activity [31]: 102%
- residual activity [32]: 102%
- residual activity [33]: 84.5%
- residual activity [34]: 101%
- residual activity [35]: 102%
- residual activity [36]: 94.3%
- residual activity [37]: 111%
- residual activity [38]: 88.9%
- residual activity [39]: 101%
- residual activity [40]: 91.4%
- residual activity [41]: 101%
- residual activity [42]: 95.5%

SMILES: O=C(O)/C=C/c1cc(Br)c(Br)c(Br)c1Br
- residual activity [1]: 103%
- residual activity [2]: 92.7%
- residual activity [3]: 90.3%
- residual activity [4]: 90.9%
- residual activity [5]: 97.8%
- residual activity [6]: 98.1%
- residual activity [7]: 64.4%
- residual activity [8]: 77.7%
- residual activity [9]: 98.3%
- residual activity [10]: 88.6%
- residual activity [11]: 59.1%
- residual activity [12]: 73.7%
- residual activity [13]: 104%
- residual activity [14]: 100%
- residual activity [15]: 88.8%
- residual activity [16]: 88.8%
- residual activity [17]: 88.2%
- residual activity [18]: 101%
- residual activity [19]: 102%
- residual activity [20]: 94%
- residual activity [21]: 98.4%
- residual activity [22]: 101%
- residual activity [23]: 63.5%
- residual activity [24]: 103%
- residual activity [25]: 83.5%
- residual activity [26]: 24.8%
- residual activity [27]: 96%
- residual activity [28]: 87.6%
- residual activity [29]: 93.9%
- residual activity [30]: 71.6%
- residual activity [31]: 80.3%
- residual activity [32]: 94%
- residual activity [33]: 88.4%
- residual activity [34]: 75.8%
- residual activity [35]: 91.4%
- residual activity [36]: 62%
- residual activity [37]: 90.4%
- residual activity [38]: 86.1%
- residual activity [39]: 102%
- residual activity [40]: 56.3%
- residual activity [41]: 85.7%
- residual activity [42]: 89.8%
